Experimental data: patent publication US4731109A, “Herbicidal 2-haloacetanilides” (Monsanto Company, priority 1982, dated 1988)

Columns and labels:
corn = experiment: Greenhouse pre-emergence GR15/GR85 selectivity test; format: in vivo
Source text: (§1) A good grade of top soil is placed in aluminum pans and compacted to a depth of three-eighths to one-half inch from the top of the pan. On the top of the soil is placed a number of seeds or vegetative propagules of various plant species. The soil required to level fill the pans after seeding or adding vegetative propagules is weighed into a pan. The soil and a known amount of the active ingredient applied in a solvent or as a wettable powder suspension are thoroughly mixed, and used to cover the prepared pans. After treatment, the pans are given an initial overhead irrigation of eater, equivalent to one-fourth inch (0.64 cm) rainfall, then watered by subirrigation as need to give adequate moisture for germination and growth. As an alternative procedure, the overhead irrigation may be omitted. Observations are made about 2-3 weeks after seeding and treatment.
(§2) In the discussion and tables of data below, reference is made to herbicide application rates symbolized as "GR15 " and "GR85 "; these rates are given in kilograms per hectare (kg/ha) which are convertible into pounds per acre (lbs/A) by dividing the kg/ha rate by 1.12.
(§3) A further guide to the effectiveness of a chemical as a selective herbicide is the "selectivity factor" ("SF") for a herbicide in given crops and weeds. The selectivity factor is a measure of the relative degree of crop safety and weed injury and is expressed in terms of the GR15 /GR85 ratio, i.e., the GR15 rate for the crop divided by the GR85 rate for the weed, both rates in kg/ha (lb/A). In the tables below, selectivity factors are shown in parenthesis following the GR85 rate for each weed; the symbol "NS" indicates "non-selective". Marginal or undetermined selectivity is indicated by a dash (--).
In Table IV pre-emergence herbicidal activity data are presented comparing the relative efficacy of the invention compounds and said prior art compounds as selective herbicides against the resistant and troublesome perennial weeds quackgrass and yellow nutsedge in soybeans and corn, respectively. These weeds are commonly associated with such major crops as corn and soybeans. The test data in Table IV were obtained under identical procedural conditions and represent two replicate runs (except for the compound of Example 9 which was present in one comparative test). The test procedure was the same as described for Tables II and III but modified by the application of an initial overhead irrigation equivalent to 1/4" (0.64 cm) rainfall; subsequent watering was accomplished by subirrigation. "NS" means non-selective within the test limits.
(§4) Additionally, pre-emergence herbicidal data from other tests have established that compounds according to this invention also selectively suppress quackgrass, yellow nutsedge and/or other weeds in one or more of the crops cotton, peanuts, bush beans and/or rape. For example, in Table VI are presented data showing the herbicidal selectivity of the compounds of Examples 1 and 2 against quackgrass in rape and snap beans. Unless otherwise noted; greenhouse tests in Table VI and in other tables below involved herbicide treatments by soil incorporation and an initial overhead irrigation followed by subirrigation as described above.

rape = experiment: as above; format: in vivo; conditions: Table XV
Source text: as §1, §2, §3, §4
(§5) In another greenhouse test, the compounds of Examples 3-5, 9 and 10 were tested for their herbicidal efficacy against a variety of resistant annual and perennial weeds in rape.

purple nutsedge = experiment: as above; format: in vivo; conditions: Table XV; for selectivity factor (GR15/GR85): in rape
Source text: as §1, §2, §3, §4
In other greenhouse tests, compounds according to this invention have shown selective control of a variety of annual and perennial weeds in various crops. As further illustrative, the compound of Example 1 selectively controlled purple nutsedge in both corn nd soybeans, the respective crop/weed GR15 /GR85 ratios (expressed in kg/ha) being 0.67/0.25 (S.F.=2.7) in corn and 1.1/0.25 (S.F.=4.5) in soybeans. The compound of Example 8 has shown selective control of yellow nutsedge and quackgrass in corn and soybeans. The respective crop/yellownutsedge GR15 /GR85 ratios being >2.2/0.95 (S.F.=2.5) in corn; 2.2/0.5 (SF=4.5) in soybeans and the respective GR15 /GR85 ratios for both corn and soybeans in quackgrass being >2.2/0.5 (S.F.=4.5). In a test against yellow nutsedge in cotton, the GR15 /GR85 ratio (average of two replicates) was 2.0/0.95 (S.F.=2).
as §5

Texas panicum = experiment: as above; format: in vivo; conditions: Table XVI
Source text: as §1, with “After treatment, the pans are given an initial overhead irrigation of eater, equivalent to one-fourth inch (0.64 cm) rainfall, then watered by subirrigation as need to give adequate moisture for germination and growth.” left out
as §3
(§6) Unless otherwise noted; greenhouse tests in Table VI and in other tables below involved herbicide treatments by soil incorporation and an initial overhead irrigation followed by subirrigation as described above.

alexandergrass = experiment: as above; format: in vivo; conditions: Table XV; for selectivity factor (GR15/GR85): in rape
Source text: as §1, with “After treatment, the pans are given an initial overhead irrigation of eater, equivalent to one-fourth inch (0.64 cm) rainfall, then watered by subirrigation as need to give adequate moisture for germination and growth.” left out
as §3, §6

fall panicum = experiment: as above; format: in vivo; conditions: Table XVI
Source text: as §1, with “After treatment, the pans are given an initial overhead irrigation of eater, equivalent to one-fourth inch (0.64 cm) rainfall, then watered by subirrigation as need to give adequate moisture for germination and growth.” left out
as §3, §6

itchgrass = experiment: as above; format: in vivo; conditions: Table XVI
Source text: as §1, with “After treatment, the pans are given an initial overhead irrigation of eater, equivalent to one-fourth inch (0.64 cm) rainfall, then watered by subirrigation as need to give adequate moisture for germination and growth.” left out
as §3, §6

red rice = experiment: as above; format: in vivo; conditions: Table XVI
Source text: as §1, with “After treatment, the pans are given an initial overhead irrigation of eater, equivalent to one-fourth inch (0.64 cm) rainfall, then watered by subirrigation as need to give adequate moisture for germination and growth.” left out
as §3, §6

seedling johnsongrass = experiment: as above; format: in vivo; conditions: Table XVI
Source text: as §1, with “After treatment, the pans are given an initial overhead irrigation of eater, equivalent to one-fourth inch (0.64 cm) rainfall, then watered by subirrigation as need to give adequate moisture for germination and growth.” left out
as §3, §6

shattercane = experiment: as above; format: in vivo; conditions: Table XVI
Source text: as §1, with “After treatment, the pans are given an initial overhead irrigation of eater, equivalent to one-fourth inch (0.64 cm) rainfall, then watered by subirrigation as need to give adequate moisture for germination and growth.” left out
as §3, §6

wild proso millet = experiment: as above; format: in vivo, wild proso millet (panicum milicaeum); conditions: Table XVI
Source text: as §1, with “After treatment, the pans are given an initial overhead irrigation of eater, equivalent to one-fourth inch (0.64 cm) rainfall, then watered by subirrigation as need to give adequate moisture for germination and growth.” left out
as §3, §6

Quackgrass = experiment: Herbicidal effect in a variety of soil types; format: in vivo; conditions: for selectivity factor (GR15/GR85): in soybeans
Source text: The herbicide treatments were by soil incorporation with seeds planted 0.375 in (0.95 cm) deep, with 0.25 in (0.64 cm overhead irrigation. Observations were made about three weeks after treatment. Selectivity factors are shown in parenthesis.

soybeans = experiment: Herbicidal effect in a variety of soil types; format: in vivo
[1] = Drummer silty clay, Table XVII C
[2] = Wabash silty clay, Table XVII C
[3] = Wabash silty clay, Table XVII B

CCOCN(C(=O)CCl)c1c(CC)cccc1C(F)(F)F [Example 9, N--(ethoxymethyl)-2'-trifluoromethyl-6'-ethyl-2-chloroacetanilide]
GR15 (corn; Table IV, Replicate #2): 2.2 Kg/Ha
GR15 (corn; Table XII): 2.5 Kg/Ha
GR15 (corn; Table XIII): 1.7 Kg/Ha
GR15 Rate (rape): 0.98 Kg/Ha
GR85 Rate (purple nutsedge): 0.19 Kg/Ha
selectivity factor (GR15/GR85) (purple nutsedge): 5.2
GR85 Rate (Texas panicum): 0.56 Kg/Ha
selectivity factor (GR15/GR85) (Texas panicum; in lima beans): 1.3
selectivity factor (GR15/GR85) (Texas panicum; in peanuts): 1.6
GR85 Rate (alexandergrass): 0.19 Kg/Ha
selectivity factor (GR15/GR85) (alexandergrass): 5.2
GR85 Rate (fall panicum): 0.13 Kg/Ha
selectivity factor (GR15/GR85) (fall panicum; in lima beans): 5.8
selectivity factor (GR15/GR85) (fall panicum; in peanuts): 6.9
GR85 Rate (itchgrass): 0.53 Kg/Ha
selectivity factor (GR15/GR85) (itchgrass; in lima beans): 1.4
selectivity factor (GR15/GR85) (itchgrass; in peanuts): 1.7
GR85 Rate (red rice): 0.42 Kg/Ha
selectivity factor (GR15/GR85) (red rice; in lima beans): 1.8
selectivity factor (GR15/GR85) (red rice; in peanuts): 2.1
GR85 Rate (seedling johnsongrass): 0.25 Kg/Ha
selectivity factor (GR15/GR85) (seedling johnsongrass; in lima beans): 3
selectivity factor (GR15/GR85) (seedling johnsongrass; in peanuts): 3.6
GR85 Rate (shattercane): 0.21 Kg/Ha
selectivity factor (GR15/GR85) (shattercane; in lima beans): 3.6
selectivity factor (GR15/GR85) (shattercane; in peanuts): 4.3
GR85 Rate (wild proso millet): 0.56 Kg/Ha
selectivity factor (GR15/GR85) (wild proso millet; in lima beans): 1.3
selectivity factor (GR15/GR85) (wild proso millet; in peanuts): 1.6
GR85 (Quackgrass; [1]): 0.17 Kg/Ha
GR85 (Quackgrass; Florida muck, Table XVII C): 0.73 Kg/Ha
GR85 (Quackgrass; Ray silt loam, Table XVII C): 0.13 Kg/Ha
GR85 (Quackgrass; Sarpy silty clay, Table XVII C): 0.13 Kg/Ha
GR85 (Quackgrass; [2]): 0.24 Kg/Ha
selectivity factor (GR15/GR85) (Quackgrass; [1]): > 13
selectivity factor (GR15/GR85) (Quackgrass; Florida muck, Table XVII C): > 3
selectivity factor (GR15/GR85) (Quackgrass; Ray silt loam, Table XVII C): > 16.5
selectivity factor (GR15/GR85) (Quackgrass; Sarpy silty clay, Table XVII C): > 16.5
selectivity factor (GR15/GR85) (Quackgrass; [2]): 12.5
GR15 (soybeans; [1]): > 2.2 Kg/Ha
GR15 (soybeans; Florida muck, Table XVII C): > 2.2 Kg/Ha
GR15 (soybeans; Ray silt loam, Table XVII C): > 2.2 Kg/Ha
GR15 (soybeans; Sarpy silty clay, Table XVII C): > 2.2 Kg/Ha
GR15 (soybeans; [2]): 3.0 Kg/Ha

CCCOCN(C(=O)CCl)c1c(C)cccc1C(F)(F)F [Example 3, N--(n-propoxymethyl)-2'-trifluoromethyl-6'-methyl-2-chloroacetanilide]
GR15 (corn; Table IV, Replicate #1): 0.78 Kg/Ha
GR15 (corn; Table IV, Replicate #2): 0.73 Kg/Ha
GR15 Rate (rape): 0.90 Kg/Ha
GR85 Rate (purple nutsedge): 0.12 Kg/Ha
selectivity factor (GR15/GR85) (purple nutsedge): 7.5
GR85 Rate (Texas panicum): 0.43 Kg/Ha
selectivity factor (GR15/GR85) (Texas panicum; in lima beans): 1.1
selectivity factor (GR15/GR85) (Texas panicum; in peanuts): > 2.6
GR85 Rate (alexandergrass): 0.14 Kg/Ha
selectivity factor (GR15/GR85) (alexandergrass): 6.3
GR85 Rate (fall panicum): 0.08 Kg/Ha
selectivity factor (GR15/GR85) (fall panicum; in lima beans): 6
selectivity factor (GR15/GR85) (fall panicum; in peanuts): > 14
GR85 Rate (itchgrass): 0.51 Kg/Ha
selectivity factor (GR15/GR85) (itchgrass; in lima beans): NS (non-selective)
selectivity factor (GR15/GR85) (itchgrass; in peanuts): > 2.2
GR85 Rate (red rice): 0.37 Kg/Ha
selectivity factor (GR15/GR85) (red rice; in lima beans): 1.3
selectivity factor (GR15/GR85) (red rice; in peanuts): > 3
GR85 Rate (seedling johnsongrass): 0.23 Kg/Ha
selectivity factor (GR15/GR85) (seedling johnsongrass; in lima beans): 2.1
selectivity factor (GR15/GR85) (seedling johnsongrass; in peanuts): > 4.9
GR85 Rate (shattercane): 0.11 Kg/Ha
selectivity factor (GR15/GR85) (shattercane; in lima beans): 4.5
selectivity factor (GR15/GR85) (shattercane; in peanuts): > 10.2
GR85 Rate (wild proso millet): 0.27 Kg/Ha
selectivity factor (GR15/GR85) (wild proso millet; in lima beans): 1.8
selectivity factor (GR15/GR85) (wild proso millet; in peanuts): > 4.2
GR85 (Quackgrass; Florida muck, Table XVII B): 1.1 Kg/Ha
GR85 (Quackgrass; Florida sand, Table XVII B): 0.72 Kg/Ha
GR85 (Quackgrass; [3]): 0.22 Kg/Ha
selectivity factor (GR15/GR85) (Quackgrass; Florida muck, Table XVII B): > 2
selectivity factor (GR15/GR85) (Quackgrass; Florida sand, Table XVII B): 2.5
selectivity factor (GR15/GR85) (Quackgrass; [3]): 9
GR15 (soybeans; Florida muck, Table XVII B): > 2.2 Kg/Ha
GR15 (soybeans; Florida sand, Table XVII B): 2.0 Kg/Ha
GR15 (soybeans; [3]): 2.0 Kg/Ha
